# Results: PubChem BioAssay AID330 (DTP/NCI, 2004)
# Values joined by “and” are separate entries in the source; they are usually repeats but may differ in a detail not shown here. Identical values can stand only once. Inconclusive results and toxic doses are left out.
# System: P388 leukemia ip, CD2F1 mice, survival T/C
# Assay: NCI In Vivo Anticancer Drug Screen. Data for tumor model P388 Leukemia (intraperitoneal) in CD2F1 (CDF1) mice
# Details: endpoint: median survival time, higher = longer survival
# Procedure, shortened: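 Mice carrying the transplanted tumor received test compound or vehicle. Survival was recorded in each group, and the value is the treated-group measurement divided by that of the vehicle-treated control group.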
# [1] = dose: 3.12 mg/kg/injection, schedule: Q01DX005 (ip), vehicle: Klucel (hydroxypropylcellulose) (HPC)
# [2] = dose: 50.0 mg/kg/injection, schedule: Q01DX005 (ip), vehicle: saline with Tween-80
# [3] = dose: 100.0 mg/kg/injection, schedule: Q01DX005 (ip), vehicle: saline with Tween-80
# [4] = dose: 200.0 mg/kg/injection, schedule: Q01DX005 (ip), vehicle: saline with Tween-80
# [5] = dose: 100.0 mg/kg/injection, schedule: Q01DX001 (ip), vehicle: saline
# [6] = dose: 100.0 mg/kg/injection, schedule: Q04DX003 (ip), vehicle: water
# [7] = dose: 200.0 mg/kg/injection, schedule: Q04DX003 (ip), vehicle: water
# [8] = dose: 50.0 mg/kg/injection, schedule: Q01DX009 (ip), vehicle: Klucel (hydroxypropylcellulose) (HPC)
# [9] = dose: 100.0 mg/kg/injection, schedule: Q01DX009 (ip), vehicle: Klucel (hydroxypropylcellulose) (HPC)
# [10] = dose: 200.0 mg/kg/injection, schedule: Q01DX009 (ip), vehicle: Klucel (hydroxypropylcellulose) (HPC)
# [11] = dose: 60.0 mg/kg/injection, schedule: Q01DX005 (ip), vehicle: saline with Tween-80
# [12] = dose: 120.0 mg/kg/injection, schedule: Q01DX005 (ip), vehicle: saline with Tween-80
# [13] = dose: 240.0 mg/kg/injection, schedule: Q01DX005 (ip), vehicle: saline with Tween-80
# [14] = dose: 100.0 mg/kg/injection, schedule: Q01DX009 (ip), vehicle: saline with Tween-80
# [15] = dose: 100.0 mg/kg/injection, schedule: Q04DX003 (ip), vehicle: saline with Tween-80
# [16] = dose: 200.0 mg/kg/injection, schedule: Q01DX009 (ip), vehicle: saline with Tween-80
# [17] = dose: 200.0 mg/kg/injection, schedule: Q04DX003 (ip), vehicle: saline with Tween-80
# [18] = dose: 400.0 mg/kg/injection, schedule: Q01DX009 (ip), vehicle: saline with Tween-80
# [19] = dose: 400.0 mg/kg/injection, schedule: Q04DX003 (ip), vehicle: saline with Tween-80
# [20] = dose: 60.0 mg/kg/injection, schedule: Q01DX005 (ip), vehicle: Klucel (hydroxypropylcellulose) (HPC)
# [21] = dose: 120.0 mg/kg/injection, schedule: Q01DX005 (ip), vehicle: Klucel (hydroxypropylcellulose) (HPC)
# [22] = dose: 50.0 mg/kg/injection, schedule: Q01DX009 (ip), vehicle: saline with Tween-80
# [23] = dose: 50.0 mg/kg/injection, schedule: Q01DX005 (ip), vehicle: Klucel (hydroxypropylcellulose) (HPC)
# [24] = dose: 100.0 mg/kg/injection, schedule: Q01DX005 (ip), vehicle: Klucel (hydroxypropylcellulose) (HPC)
# [25] = dose: 200.0 mg/kg/injection, schedule: Q01DX005 (ip), vehicle: Klucel (hydroxypropylcellulose) (HPC)
# [26] = dose: 200.0 mg/kg/injection, schedule: Q04DX003 (ip), vehicle: Klucel (hydroxypropylcellulose) (HPC)
compound,measurement,setting,value
CN1C2C=C(c3ccccc3)CC1CC2 (stereo not drawn),T/C,"dose: 0.75 mg/kg/injection, schedule: Q01DX005 (ip), vehicle: saline",94 % of control
same,T/C,"dose: 1.5 mg/kg/injection, schedule: Q01DX005 (ip), vehicle: saline",108 % of control
same,T/C,"dose: 1.56 mg/kg/injection, schedule: Q01DX005 (ip), vehicle: Klucel (hydroxypropylcellulose) (HPC)",105 % of control
same,T/C,"dose: 3.0 mg/kg/injection, schedule: Q01DX005 (ip), vehicle: saline",102 % of control
same,T/C,[1],103 % of control
CC(=O)NC1c2ccccc2CCC1OC(C)=O (stereo not drawn),T/C,[2],99 % of control
same,T/C,[3],99 % of control
same,T/C,[4],99 % of control
COCC1(C)CCCC2(C)C1CCC13CCC(OC)CC12O3 (stereo not drawn),T/C,[5],115 % of control
same,T/C,"dose: 200.0 mg/kg/injection, schedule: Q01DX001 (ip), vehicle: saline",106 % of control
same,T/C,"dose: 400.0 mg/kg/injection, schedule: Q01DX001 (ip), vehicle: saline",94 % of control
CN(C)CCCNC(=O)c1ccc2c(c1)C(=O)c1ccccc1C2=O,T/C,[6],107 % of control
same,T/C,[7],115 % of control
C/C=C/C[P+](C)(c1ccccc1)c1ccccc1,T/C,"dose: 0.75 mg/kg/injection, schedule: Q01DX009 (ip), vehicle: saline",104 % of control
CC(O)C(NC(=O)SCc1ccccc1)C(=O)O (stereo not drawn),T/C,[2],101 % of control
same,T/C,[3],90 % of control
same,T/C,[4],92 % of control
O=C(O)CCN1C(=S)CSC1=S,T/C,[8],107 % of control
same,T/C,[9],103 % of control
same,T/C,[10],100 % of control
CCOC(=O)c1sc(C(=O)OCC)c2c1-c1cccc3cccc-2c13,T/C,[11],100 % of control
same,T/C,[12],99 % of control
same,T/C,[13],97 % of control
COC(=O)CC(OC1CC(N)C(O)C(C)O1)c1c(O)c2c(c(O)c1CO)C(=O)c1cccc(OC)c1C2=O (stereo not drawn),T/C,[6],105 % of control
same,T/C,[7],121 % of control
Cc1ccc(NC(=S)SCc2ccc3c(c2)OCO3)cc1Cl,T/C,"dose: 50.0 mg/kg/injection, schedule: Q01DX009 (ip), vehicle: suspension in saline",106 % of control
same,T/C,"dose: 100.0 mg/kg/injection, schedule: Q01DX009 (ip), vehicle: suspension in saline",94 % of control
same,T/C,"dose: 200.0 mg/kg/injection, schedule: Q01DX009 (ip), vehicle: suspension in saline",102 % of control
NC(Cc1cccs1)C(=O)O (stereo not drawn),T/C,[14],100 % of control
same,T/C,[15],109 % of control
same,T/C,[16],100 % of control
same,T/C,[17],100 % of control
same,T/C,[18],100 % of control
same,T/C,[19],100 % of control
O=C1N2CCCSC2=NC1(c1ccccc1)c1ccccc1,T/C,[11],97 % of control
same,T/C,[12],98 % of control
same,T/C,[13],89 % of control
CC(=O)C1CCC2=C(C1)C(=O)c1cc3c(cc1C2=O)C1(c2ccccc2)OC3(c2ccccc2)C2C(=O)N(c3ccccc3)C(=O)C21 (stereo not drawn),T/C,[20],90 % of control
same,T/C,[21],88 % of control
NCCOc1c2occc2cc2ccc(=O)oc12,T/C,[5],110 % of control
CCOc1cccc(/C=N/n2c(-c3ccccc3)nc3ccccc3c2=O)c1O,T/C,[22],99 % of control
same,T/C,[14],96 % of control
same,T/C,[16],105 % of control
CC(=O)c1ccc(-c2ccc(C(C)=O)cc2)cc1,T/C,[22],96 % of control
same,T/C,[14],100 % of control
same,T/C,[16],87 % of control
same,T/C,[18],87 % of control
C/C=C/C(=O)Nc1ncc([N+](=O)[O-])s1,T/C,[8],111 % of control
same,T/C,[9],114 % of control
same,T/C,[10],113 % of control
COC(=O)C(Cc1c[nH]c2ccccc12)NC(=O)c1ccccc1NC(=O)OCc1ccccc1 (stereo not drawn),T/C,"dose: 17.5 mg/kg/injection, schedule: Q01DX005 (ip), vehicle: Klucel (hydroxypropylcellulose) (HPC)",103 % of control
same,T/C,"dose: 35.0 mg/kg/injection, schedule: Q01DX005 (ip), vehicle: Klucel (hydroxypropylcellulose) (HPC)",104 % of control
same,T/C,"dose: 70.0 mg/kg/injection, schedule: Q01DX005 (ip), vehicle: Klucel (hydroxypropylcellulose) (HPC)",97 % of control
Cc1cc(Cl)c(C)c(Cl)c1Cl,T/C,[15],95 % of control
same,T/C,[17],95 % of control
same,T/C,[19],91 % of control
COc1cc2cnc3c4cc(OC)c(OC)cc4c(O)cc3c2cc1OC,T/C,[1],98 % of control
same,T/C,"dose: 6.25 mg/kg/injection, schedule: Q01DX005 (ip), vehicle: Klucel (hydroxypropylcellulose) (HPC)",106 % of control
same,T/C,"dose: 12.5 mg/kg/injection, schedule: Q01DX005 (ip), vehicle: Klucel (hydroxypropylcellulose) (HPC)",98 % of control
Clc1ccc(NCNC2Nc3ccccc3N2)cc1Cl,T/C,[11],94 % of control
same,T/C,[12],93 % of control
CC(=O)NCCCCCCCNC(C)=O,T/C,"dose: 60.0 mg/kg/injection, schedule: Q01DX005 (ip), vehicle: saline",104 % of control
same,T/C,"dose: 120.0 mg/kg/injection, schedule: Q01DX005 (ip), vehicle: saline",107 % of control
same,T/C,"dose: 240.0 mg/kg/injection, schedule: Q01DX005 (ip), vehicle: saline",96 % of control
CCOC(=O)CSc1ccccc1,T/C,"dose: 50.0 mg/kg/injection, schedule: Q01DX009 (ip), vehicle: saline",100 % of control
same,T/C,"dose: 100.0 mg/kg/injection, schedule: Q01DX009 (ip), vehicle: saline",98 % of control
same,T/C,"dose: 200.0 mg/kg/injection, schedule: Q01DX009 (ip), vehicle: saline",100 % of control
same,T/C,"dose: 400.0 mg/kg/injection, schedule: Q01DX009 (ip), vehicle: saline",100 % of control
O=C1CCC(=O)N(CNc2cccc(Cc3cccc(NCN4CC(=O)CCC4=O)c3)c2)C1,T/C,[11],91 % of control
same,T/C,[12],91 % of control
same,T/C,[13],89 % of control
O=c1[nH]c(=S)[nH]c2c1CN(CCCN1CCN(CCCN3CNc4[nH]c(=S)[nH]c(=O)c4C3)CC1)CN2,T/C,[23],96 % of control
same,T/C,[24],94 % of control
same,T/C,[25],95 % of control
O=C(CN1CCCC1)Nc1nc(-c2ccc(Cl)cc2)cs1,T/C,[2],96 % of control
same,T/C,[3],100 % of control
same,T/C,[4],91 % of control
COC(=O)Nc1csc2c1NC(=O)CCCC2,T/C,[26],110 % of control
same,T/C,"dose: 400.0 mg/kg/injection, schedule: Q04DX003 (ip), vehicle: Klucel (hydroxypropylcellulose) (HPC)",105 % of control
O=C1OC2=C(CCc3nc(-c4ccccc4)sc32)C(N(c2ccccc2)c2ccccc2)C1(Cl)Cl (stereo not drawn),T/C,[23],96 % of control
same,T/C,[24],90 % of control
same,T/C,[25],86 % of control
CN(CN(C)N=Nc1ccc(Br)cc1)CN(C)N=Nc1ccc(Br)cc1,T/C,[20],100 % of control
same,T/C,[21],92 % of control
CCOCc1cnc(C)nc1N,T/C,[22],110 % of control
same,T/C,[14],120 % of control
same,T/C,[16],110 % of control
O=C(O)c1ccccc1NC(c1ccccc1)c1ccc2cccnc2c1O (stereo not drawn),T/C,"dose: 100.0 mg/kg/injection, schedule: Q04DX003 (ip), vehicle: Klucel (hydroxypropylcellulose) (HPC)",114 % of control and 115 % of control
same,T/C,[26],113 % of control and 119 % of control
NC1C(=O)OC(C(O)CO)C1O (stereo not drawn),T/C,"dose: 12.5 mg/kg/injection, schedule: Q01DX009 (ip), vehicle: water",100 % of control
same,T/C,"dose: 25.0 mg/kg/injection, schedule: Q01DX009 (ip), vehicle: water",100 % of control
same,T/C,"dose: 50.0 mg/kg/injection, schedule: Q01DX009 (ip), vehicle: water",104 % of control
same,T/C,"dose: 100.0 mg/kg/injection, schedule: Q01DX009 (ip), vehicle: water",98 % of control
same,T/C,"dose: 200.0 mg/kg/injection, schedule: Q01DX009 (ip), vehicle: water",97 % of control
Cc1ccc(CN2CC(=O)N3Cc4ccccc4CN3C(=O)C2)cc1,T/C,[2],103 % of control
same,T/C,[3],116 % of control
same,T/C,[4],98 % of control
COc1ccc(CCN2C(=O)C(=O)N(C(C)C)C2=O)cc1OC,T/C,[8],86 % of control
same,T/C,[9],91 % of control
same,T/C,[10],95 % of control
N#COc1ccc(-c2ccccc2)cc1,T/C,[11],90 % of control
same,T/C,[12],87 % of control
same,T/C,[13],86 % of control and 90 % of control
